# Molecular target: T1, BRD9 (Homo sapiens, UniProt Q9H8M2)
# T1 sequence (Q9H8M2 1-597): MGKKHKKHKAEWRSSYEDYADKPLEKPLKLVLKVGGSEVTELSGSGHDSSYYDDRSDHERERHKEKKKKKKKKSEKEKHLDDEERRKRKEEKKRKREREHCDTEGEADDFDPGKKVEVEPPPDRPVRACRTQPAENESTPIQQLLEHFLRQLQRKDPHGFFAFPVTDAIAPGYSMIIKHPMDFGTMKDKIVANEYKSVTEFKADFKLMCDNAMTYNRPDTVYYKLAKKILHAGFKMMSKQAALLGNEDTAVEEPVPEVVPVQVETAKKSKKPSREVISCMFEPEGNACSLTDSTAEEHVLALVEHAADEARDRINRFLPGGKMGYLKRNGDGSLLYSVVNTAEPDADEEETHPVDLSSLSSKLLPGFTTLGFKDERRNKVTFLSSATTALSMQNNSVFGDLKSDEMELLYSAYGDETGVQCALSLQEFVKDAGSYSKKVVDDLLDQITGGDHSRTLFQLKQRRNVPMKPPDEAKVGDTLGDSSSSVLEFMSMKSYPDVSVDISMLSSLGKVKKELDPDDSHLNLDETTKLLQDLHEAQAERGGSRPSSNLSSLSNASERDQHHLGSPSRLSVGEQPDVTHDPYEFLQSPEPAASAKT
# Assay: HiBit Lytic Assay (HiBit DC50, BRD9 degraders of Table 1)
# Type: cell-based
# Details: 11-point half log dose response, NanoLuc signal
# Procedure: Example 3. HiBit Lytic Assay
# • Compound is made at 10 mM, half log dilution, 11 points. • MDR plates can also be ordered from Frontier with same format. • 1. Barcode a 384LDV plate (384-well Low Dead Volume Microplate, Labcyte LP-0200) (Echo compatible) on the left side. • 2. Transfer 13.6 μL of 10 mM compound into column 1 of LDV plate (Labcyte). • 3. Fill column 2-11 and column 23 of MDR plate with 9.30 μL of DMSO. • 4. Serial dilute 3.16 fold from column 1 to 2 by transferring 4.30 μL from column 1 to column 2, and so on to column 11. *Change tip in every dilution to prevent compound carryover effect! • 5. Seal the plate with Plate Sealer, then store the MDR plate at room temperature for short term storage and in −20° C. for long term storage.
# • Cells are treated with 30 nL of each compound at 10 mM, half log dilution, 11 points with final concentration of 1000 nM or 833 nM, half log dilution, 11 points, in duplicates. Final DMSO concentration is 0.1%. • 1. Barcode the plates made on the left side and label the plates with silver marker. • 2. Dispense with the following scheme: • a. 30 nL of compound into corresponding wells in cell plates via Echo550 with “MDR32_HiBiT16_30 nL”. Top concentration will be 1000 nM. • 3. Seal the plate with Plate Sealer.
# • Cells are dispensed at density specified in Cell Line Table in 384-well microplate. • 1. Culture cells to between 50-80% of confluence in sterile culture flasks of appropriate size. • 2. For Adherent Cell Lines: • a. Aspirate off growth media in culture flask, and wash off the Phenol Red media with 5 mL of 1×PBS. • b. Add 5 mL of Trypsin to the cells, incubate at 37° C. for 5 minutes. • c. Add 5 mL of growth media to the trypsinzed cells, and resuspend. • 3. Remove 10 μL of cells, and resuspend the cells with 10 μL of Trypan Blue. Insert the solution to counting chamber slide, and count the cells via cell counter. • 4. Adjust the cell concentration to specified plating density, and strain the cells with cell strainer. • 5. Dispense the cells via E1-ClipTip™ Electronic Multichannel Pipettes or Multidrop™ Combi Reagent Dispenser with Standard tube dispensing cassette: • a. Prime the cassette with 10-20 mL of ddH2O. • b. Prime the cassette with 10-20 mL of cells. • c. Dispense the cells at low speed for 30 μL/well in Corning® 384 Well Low Flange Black Flat Bottom Polystyrene TC-Treated Microplate. • d. Wash the cassette with 10-20 mL of ddH2O, follow by 10-20 mL of 70% EtOH, then again with 10-20 mL of ddH2O. • 6. Incubate the plates at 37° C.×compound treatment time.
# • 1. If not already, bring Nano-Glo® HiBiT Lytic Buffer to room temperature. • 2. Determine the amount of reagent needed. A volume of reagent equal to the volume of media in the well should be added (i.e. 30 μL of cells will need 30 μL of HiBiT Lytic reagent). • 3. Into a given volume of buffer, dilute the substrate 50-fold and the LgBiT protein 100-fold. For example, to make 10 ml of reagent, add the following: • 10 ml Nano-Glo® HiBiT Lytic Buffer • 200 μl Nano-Glo® HiBiT Lytic Substrate • 100 μl LgBiT Protein • The reagent should be reconstituted immediately before use. However, once reconstituted, it should take about 4 hours for the activity to decrease 10%. • 4. Cool down the cell plate to room temperature for 10-15 minutes without lid. • 5. Dispense the HiBiT Lytic Reagent via E1-ClipTip™ Electronic Multichannel Pipettes or Multidrop™ Combi Reagent Dispenser with Standard tube dispensing cassette: • a. Prime the cassette with 10-20 mL of ddH2O. • b. Prime the cassette with 10-20 mL of CTG 2.0. • c. Dispense the HiBiT Lytic Reagent at medium speed for 30 μL/well in cell plate to column 1-23 (column 24 will be used as plate background). • d. Wash the cassette with 10-20 mL of ddH2O, follow by 10-20 mL of 70% EtOH, then again with 10-20 mL of ddH2O. • 6. Incubate the cell plate at room temperature for 10 minutes without lid. • 7. […]
row,SMILES,DC50
1,"COc1cc(-c2cn(C)c(=O)c3c2ccn3C)cc(OC)c1CN(C)CC(=O)NCCCCCCCCNC(=O)c1ccc(=O)n(C2CCC(=O)NC2=O)c1 (centres unmarked) [Compound 218, N-[8-[[2-[[4-(1,6-dimethyl-7-oxo-pyrrolo[2,3-c]pyridin-4-yl)-2,6-dimethoxy-phenyl]methyl-methyl-amino]acetyl]amino]octyl]-1-(2,6-dioxo-3-piperidyl)-6-oxo-pyridine-3-carboxamide]",< 1000 nM
2,"COc1cc(-c2cn(C)c(=O)c3[nH]ncc23)cc(OC)c1CNCC(=O)NCCCCCCCCCc1cccc2c1C(=O)N(C1CCC(=O)NC1=O)C2=O (centres unmarked) [Compound 204, 2-[[2,6-dimethoxy-4-(6-methyl-7-oxo-1H-pyrazolo[3,4-c]pyridin-4-yl)phenyl]methylamino]-N-[9-[2-(2,6-dioxo-3-piperidyl)-1,3-dioxo-isoindolin-4-yl]nonyl]acetamide]",< 100 nM
3,"COc1cc(-c2cn(C)c(=O)c3cnccc23)cc(OC)c1C(C)N(C)CC(=O)NCCCCCCCCNc1cccc2c1C(=O)N(C1CCC(=O)NC1=O)C2=O (centres unmarked) [Compound 224, 2-[1-[2,6-dimethoxy-4-(2-methyl-1-oxo-2,7-naphthyridin-4-yl)phenyl]ethyl-methyl-amino]-N-[8-[[2-(2,6-dioxo-3-piperidyl)-1,3-dioxo-isoindolin-4-yl]amino]octyl]acetamide]",< 100 nM
4,COc1cc(-c2cn(C)c(=O)c3c2cnn3C)cc(OC)c1CNCC(=O)NCCCCCCCCCc1ccc2c(c1)C(=O)N(C1CCC(=O)NC1=O)C2=O (centres unmarked) [Compound 206],< 100 nM
5,"COc1cc(-c2cn(C)c(=O)c3c2ccn3C)cc(OC)c1CN(C)CC(=O)NCCCCCCCCNc1cccc2c1CN(C1CCC(=O)NC1=O)C2=O (centres unmarked) [Compound 220, 2-[[4-(1,6-dimethyl-7-oxo-pyrrolo[2,3-c]pyridin-4-yl)-2,6-dimethoxy-phenyl]methyl-methyl-amino]-N-[8-[[2-(2,6-dioxo-3-piperidyl)-1-oxo-isoindolin-4-yl]amino]octyl]acetamide]",< 100 nM
6,"COc1cc(-c2cn(C)c(=O)c3[nH]ncc23)cc(OC)c1CN(C)CC(=O)NCCCCCCCCNc1cccc2c1C(=O)N(C1CCC(=O)NC1=O)C2=O (centres unmarked) [Compound 201, 2-[[2,6-dimethoxy-4-(6-methyl-7-oxo-1H-pyrazolo[3,4-c]pyridin-4-yl)phenyl]methyl-methyl-amino]-N-[8-[[2-(2,6-dioxo-3-piperidyl)-1,3-dioxo-isoindolin-4-yl]amino]octyl]acetamide]",< 100 nM
7,"COc1cc(-c2cn(C)c(=O)c3cnccc23)cc(F)c1CN(C)CC(=O)NCCCCCCCCNc1cccc2c1C(=O)N(C1CCC(=O)NC1=O)C2=O (centres unmarked) [Compound 222, N-[8-[[2-(2,6-dioxo-3-piperidyl)-1,3-dioxo-isoindolin-4-yl]amino]octyl]-2-[[2-fluoro-6-methoxy-4-(2-methyl-1-oxo-2,7-naphthyridin-4-yl)phenyl]methyl-methyl-amino]acetamide]",< 100 nM

# Results, then the molecule that gave them:
row,DC50,SMILES
1,< 100 nM,"COc1cc(-c2cn(C)c(=O)c3c2cnn3C)cc(OC)c1CNCC(=O)NCCCCCCCCCc1cccc2c1C(=O)N(C1CCC(=O)NC1=O)C2=O (centres unmarked) [Compound 208, 2-[[4-(1,6-dimethyl-7-oxo-pyrazolo[3,4-c]pyridin-4-yl)-2,6-dimethoxy-phenyl]methylamino]-N-[9-[2-(2,6-dioxo-3-piperidyl)-1,3-dioxo-isoindolin-4-yl]nonyl]acetamide]"
2,< 100 nM,"COc1cc(-c2cn(C)c(=O)c3cnccc23)cc(OC)c1CNCC(=O)NCCCCCCCCNc1cccc2c1C(=O)N(C1CCC(=O)NC1=O)C2=O (centres unmarked) [Compound 221, 2-[[2,6-dimethoxy-4-(2-methyl-1-oxo-2,7-naphthyridin-4-yl)phenyl]methylamino]-N-[8-[[2-(2,6-dioxo-3-piperidyl)-1,3-dioxo-isoindolin-4-yl]amino]octyl]acetamide]"
3,< 100 nM,"COc1cc(-c2cn(C)c(=O)c3cnccc23)cc(OC)c1COCC(=O)NCCCCCCCCNc1cccc2c1C(=O)N(C1CCC(=O)NC1=O)C2=O (centres unmarked) [Compound 223, 2-[[2,6-dimethoxy-4-(2-methyl-1-oxo-2,7-naphthyridin-4-yl)phenyl]methoxy]-N-[8-[[2-(2,6-dioxo-3-piperidyl)-1,3-dioxo-isoindolin-4-yl]amino]octyl]acetamide]"
4,< 100 nM,"COc1cc(-c2cn(C)c(=O)c3c2ccn3C)cc(OC)c1CN(C)CC(=O)NCCCCCCCCNc1cccc2c1C(=O)N(C1CCC(=O)NC1=O)C2=O (centres unmarked) [Compound 209, 2-[[4-(1,6-dimethyl-7-oxo-pyrrolo[2,3-c]pyridin-4-yl)-2,6-dimethoxy-phenyl]methyl-methyl-amino]-N-[8-[[2-(2,6-dioxo-3-piperidyl)-1,3-dioxo-isoindolin-4-yl]amino]octyl]acetamide]"
